The source of these data is patent EP1607399B1 (priority 2000, dated 2001).

A value given as a limit tells only on which side of the number the result lay.

For the assay, the system named is RPMI 8322 human melanoma cells. Type of assay: cell-based. The conditions noted are these: read-out: µM to 50% cell viability.

Regarding `Cc1ccc(S(=O)(=O)NCCOP(=O)(N(CCCl)CCCl)N(CCCl)CCCl)cc1` [Compound 23], the IC50 was over 500 µM.
